Measured values taken from US20250250251A1, “PIPERIDINYLPYRIDINYLCARBONITRILE DERIVATIVES AS INHIBITORS OF GLUTAMINYL-PEPTIDE CYCLOTRANSFERASE AND GLUTAMINYL-PEPTIDE CYCLOTRANSFERASE LIKE PROTEIN” (Boehringer Ingelheim International GmbH, priority 2024, published 2025).

Assays:
[1] = test system: CACO-2 cells; test: Assay C: permeability in CACO-2 cells; assay type: in vitro ADME; conditions: pairs with and without 4-fluoropiperidyl, CACO2 cells
Description: (§1) Caco-2 cells (1-2×10^5 cells/1 cm^2 area) are seeded on filter inserts (Costar transwell polycarbonate or PET filters, 0.4 μm pore size) and cultured (DMEM) for 10 to 25 days. Compounds are dissolved in appropriate solvent (like DMSO, 1-20 mM stock solutions). […] The transport solution (TL) is applied to the apical or basolateral donor side for measuring A-B or B-A permeability (3 filter replicates), respectively. Samples are collected at the start and end of experiment from the donor and at various time intervals for up to 2 hours also from the receiver side for concentration measurement by HPLC-MS/MS or scintillation counting. Sampled receiver volumes are replaced with fresh receiver solution.
(§2) Efflux ratio (ER)=permeability B−A/permeability A−B

[2] = target: T1, QPCTL (Homo sapiens, UniProt Q9NXS2); test: Assay A: biochemical QPCTL activity assay (MALDI-TOF MS, CD47 peptide substrate); conditions: Table 2, compounds of the invention, read-out: Inhibition of QPCTL: IC50
T1 construct: made in house
T1 sequence (Q9NXS2 whole entry, species assumed): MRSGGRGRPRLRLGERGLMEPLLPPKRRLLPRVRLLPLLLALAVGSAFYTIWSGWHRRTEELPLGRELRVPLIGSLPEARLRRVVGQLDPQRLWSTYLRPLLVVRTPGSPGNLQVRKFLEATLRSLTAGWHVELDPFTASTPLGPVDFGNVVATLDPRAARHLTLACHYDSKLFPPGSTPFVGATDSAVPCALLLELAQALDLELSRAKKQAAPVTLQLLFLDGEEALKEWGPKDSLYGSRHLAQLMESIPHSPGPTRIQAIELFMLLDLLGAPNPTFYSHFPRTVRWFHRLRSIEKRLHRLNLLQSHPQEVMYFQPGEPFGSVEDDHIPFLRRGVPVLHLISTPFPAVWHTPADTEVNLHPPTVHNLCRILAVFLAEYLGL
Description: (§3) QPCT or QPCTL dependent conversion of N-terminal glutamine to pyroglutamate of CD47 was monitored via MALDI-TOF MS. Test compounds were dissolved in 100% DMSO and serially diluted into clear 1,536-well microtiter plates. Enzymatic reactions were set up in assay buffer containing 20 mM Tris pH 7.5, 0.1 mM TCEP, 0.01% BSA, and 0.001% Tween20. […] The plates were incubated for 10 min in a humidified incubator at 24° C. Subsequently, 2.5 μL of CD47 peptide substrate surrogate (^19[…]^33) was added to each well (final concentration: 10 μM for QPCTL/20 μM for QPCT). The plates were mixed for 30 sec at 1,000 rpm and subsequently incubated for 40 min in a humidified incubator at 24° C. […] The plates were sealed with an adhesive foil, mixed for 30 s at 1,000 rpm and stored at room temperature until preparation of the MALDI target plates. MALDI target plates were prepared as described previously. […] QPCT or QPCTL activity was monitored by calculating the ratio between product and internal standard signals followed by normalization to high (100% activity) and low (0% activity) controls. Determination of compound potencies was obtained by fitting the dose-response data to a four-parameter logistical equation.

[3] = target: T2, QPCT (Homo sapiens, UniProt Q16769); test: Assay A: biochemical QPCT activity assay (MALDI-TOF MS, CD47 peptide substrate); conditions: Table 2, compounds of the invention, read-out: Inhibition of QPCT: IC50
T2 construct: purchased Origine (OriGene) TP700028
T2 sequence (Q16769 29-361): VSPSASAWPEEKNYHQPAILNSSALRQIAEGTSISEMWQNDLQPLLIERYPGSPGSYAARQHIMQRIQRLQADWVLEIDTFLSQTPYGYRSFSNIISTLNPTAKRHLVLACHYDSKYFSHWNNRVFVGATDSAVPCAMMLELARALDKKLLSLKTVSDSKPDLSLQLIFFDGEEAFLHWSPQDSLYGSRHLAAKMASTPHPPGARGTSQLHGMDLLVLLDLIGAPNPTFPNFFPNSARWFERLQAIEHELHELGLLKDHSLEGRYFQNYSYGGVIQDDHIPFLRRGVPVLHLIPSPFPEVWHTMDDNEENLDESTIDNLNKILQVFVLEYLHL
Description: as §3

[4] = test system: SIRPα signalling induced by Raji cells; test: Assay B: SIRPα signalling assay using Raji cells; assay type: cell-based; conditions: Homo sapiens, Table 4, compounds of the invention, read-out: Inhibition of SIRPα signalling induced by Raji cells: IC50
Description: Bioassay reagent 1 of the PathHunter Bioassay detection kit (DiscoverX 93-0001) was added to each well of the plate using a multichannel pipette followed by a 15 min incubation at room temperature. Afterwards bioassay reagent 2 was added followed by 60 min incubation at room temperature (incubation in the dark).
(§4) The analysis of the data was performed using the luminescence signal generated by beta-galactosidase in the PathHunter reporter cell line. The luminescence measurement was done using a Pherastar Multi-Mode Reader.

[5] = test system: SIRPα signalling induced by A549 cells; test: Assay B: SIRPα signalling assay using A549 cells; assay type: cell-based; conditions: Homo sapiens, Table 4, compounds of the invention, read-out: Inhibition of SIRPα signalling induced by A549 cells: IC50
Description: Two cell types are independently used: the Raji cell line (lymphoblast-like human cell line derived from B lymphocytes from a Burkitt's lymphoma patient in 1963) and A549 cells (adenocarcinoma human alveolar basal epithelial cells).
Test compounds were dissolved in 100% DMSO and serially diluted into a white 384-well microtiter cell culture plate (PerkinElmer #60076780 in case of Raji assay; PDL-coated plates Greiner #781945 in case of A549 assay). 5000 Raji cells (ATCC #CC86) or 5000 A549 cells (ATCC #CCL-185) in Assay Complete Cell Plating reagent 30 (DiscoverX 93-0563R30B) were added per well. The assay plate was incubated for 48 h at 37° C., 95% humidity and 5% CO2. 15000 reporter cells (Jurkat PathHunter SIRPαV1, DiscoverX #93-1135C19) were added to each well, and the plate was incubated for 5 h at 37° C., 95% humidity and 5% CO2. Bioassay reagent 1 of the PathHunter Bioassay detection kit (DiscoverX 93-0001) was added to each well of the plate using a multichannel pipette followed by a 15 min incubation at room temperature. Afterwards bioassay reagent 2 was added followed by 60 min incubation at room temperature (incubation in the dark).
as §4, with “Reader. Dose-response curves & IC50 data were calculated with 4-parameter sigmoidal dose response formula.” for “Reader.”

[6] = Assay C: permeability in CACO-2 cells; assay type: in vitro ADME; conditions: human, pH 7.2, Table 7, compounds of the invention, CACO-2 cells; for efflux ratio: permeability B-A/permeability A-B, read-out: Efflux Ratio
Description: as §1, §2

[7] = test system: CYP3A4 mRNA; test: Assay D: CYP induction screening assay in primary human hepatocytes; assay type: in vitro ADME; conditions: Table 9, compounds of the invention, 48 h
Description: Cryopreserved plateable human hepatocytes (single donor. BioIVT) were thawed and plated in Collagen-I coated 96-well-plates at a cell density of 0.07 million cells per well.
After a 6 h attachment period, the seeding medium was replaced by serum-free William's medium E supplemented with Matrigel (0.25 mg/ml) and allowed to recover overnight. 24 h post-seeding, serum-free Williams E medium containing the test compound at a final concentration of […] and a final DMSO content of 0.1% and 0.1% DMSO (solvent-treated control), respectively, was added to predefined wells. Exposure solutions were renewed after 24 h.
After 48 h of treatment in total, the effect of the test compounds on CYP3A4 mRNA expression was assessed using the QuantiGene Plex Gene Expression Assay. Hepatocytes were lysed and total RNA was extracted using the QuantiGene Sample Processing Kit according to the instructions of the manufacturer.
mRNA quantification was conducted using a customized QuantiGene Plex Panel to analyse CYP3A4 and the housekeeper genes RPL32, EIF4E2 and GUSB according to the instructions of the manufacturer and measured on a Luminex™ instrument. Signal was reported as median fluorescence intensity (MFI), which is proportional to the number of target RNA molecules present in the sample.
For calculation of CYP3A4 mRNA induction, the signal for CYP3A4 was normalized against the geometric mean of the signal obtained for the housekeeper genes for hepatocytes exposed to test compounds in relation to solvent-treated samples according to the following equation: […]

[8] = test system: murine hepatocytes; test: Assay E: stability in murine hepatocytes; assay type: in vitro ADME, mouse; conditions: Table 12, compounds of the invention, 1 μM, 5% species serum
Description: The metabolic degradation of the test compound is assayed in a murine hepatocyte suspension.
Murine hepatocytes (typically cryopreserved) are incubated in an appropriate buffer system (e.g. Dulbecco's modified eagle medium plus 3.5 μg glucagon/500 mL, 2.5 mg insulin/500 mL and 3.75 mg/500 mL hydrocortison) containing 5% species serum.
Following a (typically) 30 min preincubation in an incubator (37° C., 10% CO2) 5 μl of test compound solution (80 μM; from 2 mM in DMSO stock solution diluted 1:25 with medium) are added into 395 μl hepatocyte suspension (cell density in the range 0.25-5 Mio cells/mL, typically 1 Mio cells/mL; final concentration of test compound 1 μM, final DMSO concentration 0.05%).
The cells are incubated for six hours (incubator, orbital shaker) and samples (25 μl) are taken at 0, 0.5, 1, 2, 4 and 6 hours. Samples are transferred into acetonitrile and pelleted by centrifugation (5 min). The supernatant is transferred to a new 96-deepwell plate, evaporated under nitrogen and resuspended.
Decline of parent compound is analyzed by HPLC-MS/MS
CLint is calculated as follows CL_[…]=Dose/AUC=(C0/CD)/(AUD+clast/k)×1000/60. C0: initial concentration in the incubation [μM], CD: cell density of vital cells [10e6 cells/mL], AUD: area under the data [μM×h], clast: concentration of last data point [μM], k: slope of the regression line for parent decline [h−1].
The calculated in vitro hepatic intrinsic clearance can be scaled up to the intrinsic in vivo hepatic Clearance and used to predict hepatic in vivo blood clearance (CL) by the use of a liver model (well stirred model).
[formula] [formula] [formula] • Hepatocellularity, mouse: 120×10e6 cells/g liver • Liver factor, mouse: 55 g/kg bodyweight • Blood flow, mouse: 90 ml/(min×kg)

Cn1cnnc1C1CCN(c2c(C#N)cc(C(F)(F)F)nc2-c2cnc3nn(C(C)(C)C)c(Cl)c3c2)CC1
CACO2 Perm. [1]: 1.0 10^−6 cm/sec

Cn1cnnc1C1CCN(c2c(C#N)cc(Cl)cc2-c2ccc(F)nc2)CC1 [Compound 18 in WO 2024/020517]
CACO2 Perm. [1]: 23.0 10^−6 cm/sec

Cn1cnnc1C1CCN(c2c(C#N)cc(C(F)(F)F)cc2-c2ccc(F)nc2)CC1 [Compound 70 in WO 2024/020517]
CACO2 Perm. [1]: 9.0 10^−6 cm/sec

Cn1cnnc1C1CCN(c2c(C#N)cc(F)cc2-c2ccc(F)nc2)CC1 [Compound 130 in WO 2024/020517]
CACO2 Perm. [1]: 24.0 10^−6 cm/sec

Cn1cnnc1C1CCN(c2c(-c3ccc(F)nc3)ccnc2C#N)CC1 [Compound 132 in WO 2024/020517]
CACO2 Perm. [1]: 1.8 10^−6 cm/sec

Cn1cnnc1C1CCN(c2c(C#N)ccnc2-c2ccc(F)nc2)CC1 [Compound 133 in WO 2024/020517]
CACO2 Perm. [1]: 4.8 10^−6 cm/sec

Cn1cnnc1C1(F)CCN(c2c(C#N)ccnc2-c2ccc(F)nc2)CC1 [Example 1 in EP 22188580.9]
CACO2 Perm. [1]: 28.0 10^−6 cm/sec

Cn1cnnc1C1(F)CCN(c2c(C#N)cc(C(F)(F)F)nc2-c2cnc3nn(C(C)(C)C)c(Cl)c3c2)CC1 [Example 3 in EP 23189886.7]
CACO2 Perm. [1]: 47.0 10^−6 cm/sec

Cn1cnnc1C1(F)CCN(c2c(C#N)cc(C(F)(F)F)cc2-c2ccc(F)nc2)CC1 [Example 4 in EP 23161417.3]
CACO2 Perm. [1]: 40.5 10^−6 cm/sec

Cn1cnnc1C1(F)CCN(c2c(C#N)cc(C(F)(F)F)nc2-c2cnc3nn(C(C)(C)C)c(C(F)(F)F)c3c2)CC1 [Example 4 in EP 23189886.7]
CACO2 Perm. [1]: 99.5 10^−6 cm/sec

Cn1cnnc1C1(F)CCN(c2c(C#N)cc(F)cc2-c2ccc(F)nc2)CC1 [Example 6 in EP 23161417.3]
CACO2 Perm. [1]: 44.0 10^−6 cm/sec

Cn1cnnc1C1(F)CCN(c2c(-c3ccc(F)nc3)ccnc2C#N)CC1 [Example 10 in EP 22188580.9]
CACO2 Perm. [1]: 11.0 10^−6 cm/sec

Cn1cnnc1C1CCN(c2c(C#N)cc(C(F)(F)F)nc2-c2cnc3nn(C(C)(C)C)c(C(F)(F)F)c3c2)CC1 [Example 13 in EP 23189886.7]
CACO2 Perm. [1]: 3.7 10^−6 cm/sec

Cn1cnnc1C1CCN(c2c(C#N)cc(Cl)cc2-c2cnc3nn(C(C)(C)C)cc3c2)CC1 [Example 17 in EP 23161417.3]
CACO2 Perm. [1]: 2.5 10^−6 cm/sec

Cn1cnnc1C1(F)CCN(c2c(C#N)cc(Cl)cc2-c2ccc(F)nc2)CC1 [Example 18 in EP 23161417.3]
CACO2 Perm. [1]: 66.0 10^−6 cm/sec

Cn1cnnc1C1(F)CCN(c2c(C#N)cc(Cl)cc2-c2cnc3nn(C(C)(C)C)cc3c2)CC1 [Example 19 in EP 23161417.3]
CACO2 Perm. [1]: 18.0 10^−6 cm/sec

Cn1cc(-c2cc(C#N)c(N3CCC(F)(c4nncn4C)CC3)c(-c3cnc4nn(C(F)(F)F)cc4c3)n2)cn1 [Example 24]
IC50 [2]: 2 nM
IC50 [3]: 3 nM
IC50 [4]: 73 nM
IC50 [5]: 27 nM
Papp A→B [6]: 3.4 ×10⁻⁶ cm/s
efflux ratio [6]: 17.9
n-fold induction of CYP3A4 at 10 μM [7]: 1.1 n-fold
Mouse Hepatocyte Stability QH [8]: <12%

Cc1ncc(-c2cc(C#N)c(N3CCC(F)(c4nncn4C)CC3)c(-c3cnc4nn(C(F)(F)F)cc4c3)n2)cn1 [Example 25]
IC50 [2]: 3 nM
IC50 [3]: 3 nM
IC50 [4]: 181 nM
IC50 [5]: 52 nM
Papp A→B [6]: 3.1 ×10⁻⁶ cm/s
efflux ratio [6]: 16.8
n-fold induction of CYP3A4 at 10 μM [7]: 0.8 n-fold
Mouse Hepatocyte Stability QH [8]: 38%

Cn1cnnc1C1(F)CCN(c2c(C#N)cc(C(F)(F)F)nc2-c2cnc3nn(C(C)(C)C)c(C4CC4)c3c2)CC1 [Example 26]
IC50 [2]: 1 nM
IC50 [3]: 1 nM
IC50 [4]: 4 nM
IC50 [5]: 11 nM
Papp A→B [6]: 17 ×10⁻⁶ cm/s
efflux ratio [6]: 4.8
n-fold induction of CYP3A4 at 10 μM [7]: 7.9 n-fold
Mouse Hepatocyte Stability QH [8]: 27%

Cn1cnnc1C1(F)CCN(c2c(-c3cnc4nn(C(C)(C)C)cc4c3)ccc(C(F)(F)F)c2C#N)CC1 [Example 30 in EP 23161417.3]
CACO2 Perm. [1]: 1.7 10^−6 cm/sec

Cn1cnnc1C1CCN(c2c(-c3cnc4nn(C(C)(C)C)cc4c3)ccc(C(F)(F)F)c2C#N)CC1 [Example 32 in EP 23161417.3]
CACO2 Perm. [1]: 0.2 10^−6 cm/sec

Cn1cnnc1C1CCN(c2c(C#N)cccc2-c2cnc3nn(C(C)(C)C)cc3c2)CC1 [Example 50 in EP 22216126.7]
CACO2 Perm. [1]: 0.5 10^−6 cm/sec
